# In patent US20100184683A1, “ANTIBACTERIAL AND ANTIFUNGAL PEPTIDES” (C3 JIAN, INC., priority 2009, published 2010):
# Where two headings read alike, the source gives them in different places. Ends that are not written are not given here. Peptide text beside a SMILES is read from it.
# Tests used:
# [1] = tested on: A. niger; format: cell-based, Aspergillus niger; details: A. niger; Potato Dextrose Agar, 25° C., aerobic; inoculum 10^5 CFU/ml; 18-24 h or 48 h
# Protocol: (§1) In certain embodiments the MIC assays are performed as described herein in the Examples. For each organism, the media and growth conditions utilized is detailed in Table 8.
# (§2) In certain embodiments the MIC assays are performed as follows: For each organism, the media and growth conditions utilized is detailed in Table 8.
# [2] = tested on: B. subtilis; format: cell-based, Bacillus subtilis
# Method in brief: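 Values are MICs. Culture medium and incubation conditions differ between organisms.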
# [3] = tested on: S. epidermidis; format: cell-based
# Protocol: as §1, §2
# [4] = tested on: C. jeikeium; experiment: MIC assay, C. jeikeium; format: cell-based, Corynebacterium jeikium; details: TSB supplemented with 1% Tween-80, 37° C., aerobic, inoculum 10^6 CFU/ml, 18-24 h or 48 h
# Protocol: as §1, §2
# [5] = tested on: T. rubrum; format: cell-based, Trichophyton rubrum; details: T. rubrum; Potato Dextrose Agar, 25° C., aerobic; inoculum 10^5 CFU/ml; 18-24 h or 48 h
# Protocol: as §1, §2
# [6] = tested on: MRSA; format: cell-based, Methicillin-resistant Staphylococcus aureus
# Protocol: as §1, §2
# [7] = tested on: P. aeruginosa; format: cell-based, Pseudomonas aeruginosa; details: P. aeruginosa; MH, 37° C., aerobic; inoculum 10^5 CFU/ml; 18-24 h or 48 h
# Protocol: as §1, §2
# [8] = tested on: S. mutans; format: cell-based, Streptococcus mutans
# Protocol: as §1, §2
# [9] = tested on: S. pneumoniae; format: cell-based, Streptococcus pneumoniae
# Protocol: as §1, §2
# [10] = tested on: E. coli; format: cell-based, Escherichia coli
# Protocol: as §1, §2
# [11] = tested on: C. difficile; format: cell-based, Clostridium difficile; details: C. difficile; BHIS, 37° C., anaerobic; inoculum 10^5 CFU/ml; 18-24 h or 48 h
# Protocol: as §1, §2
# [12] = tested on: A. baumannii; format: cell-based, Acinetobacter baumannii; details: A. baumannii; LB, 30° C., anaerobic; inoculum 10^5 CFU/ml; 18-24 h or 48 h
# Protocol: as §1, §2
# [13] = tested on: P. gingivalis; format: cell-based, Porphyromonas gingivalis
# Protocol: as §1, §2
# [14] = tested on: A. naeslundii; format: cell-based, Actinomyces naeslundii
# Protocol: as §1, §2
# [15] = tested on: F. nucleatum; format: cell-based, Fusobacterium nucleatum
# Protocol: as §1, §2
# [16] = tested on: M. furfur ATCC 14521; details: 5 μM peptide, after 15 min of treatment, 10^6 cells/ml, ATCC medium 1072, 30° C.
# Protocol: FIG. 1. Killing kinetics of PF-S028 L and D versions against M. furfur were determined using standard time-kill methods previously detailed (Eckert et al. (2006) Antimicrob Agents Chemother., 50: 1480-1488). Briefly, a log phase culture of M. furfur ATCC 14521 was diluted to 10^6 cells/ml in ATCC medium 1072. To the reaction tubes 5 μM of either PF-S028 L or PF-S028 D were added. A reaction tube to which 4 μl of 50% methanol served as the negative control. Reaction tubes were stored at 30° C. and at indicated intervals an aliquot was removed from the reaction tube and placed in a recovery tube where peptide was removed by dilution. An aliquot from the recovery tube was plated on ATCC medium 1072 agar plates and incubated at 30° C. until visible colonies formed. Colony forming units were calculated for the negative control (no peptide), PF-S028 L, and PF-S028 D treated cultures.
# In some cases killing kinetic experiments were then conducted. Killing kinetics of PF-S028 L and D versions against M. furfur were determined as described in Eckert et al. (2006) Antimicrob Agents Chemother., 50: 1480-1488. Briefly, a log phase culture of M. furfur ATCC 14521 was diluted to 10^6 cells/ml in ATCC medium 1072. To the reaction tubes 5 μM of either PF-S028 L or PF-S028 D were added. […] Colony forming units were calculated for the negative control (no peptide), PF-S028 L, and PF-S028 D treated cultures.
# [17] = S. epidermidis, BHI supplemented with 0.25% glucose, 37° C., aerobic, inoculum 10^5 CFU/ml, 18-24 h or 48 h
compound,measurement,setting,value
CC[C@H](C)[C@H](NC(=O)[C@H](CCCNC(=N)N)NC(=O)[C@@H](NC(=O)[C@H](CCCCN)NC(=O)[C@H](CCCCN)NC(=O)[C@H](CC(C)C)NC(=O)[C@H](CC(C)C)NC(=O)[C@H](CCCCN)NC(=O)[C@H](CCCNC(=N)N)NC(=O)[C@H](Cc1c[nH]cn1)NC(=O)[C@H](CCCCN)NC(=O)[C@H](CCCCN)NC(=O)[C@H](CCCCN)NC(=O)[C@H](C)NC(=O)[C@H](CCSC)NC(=O)[C@H](CCCNC(=N)N)NC(=O)[C@H](CCCCN)NC(=O)[C@H](CCCNC(=N)N)NC(=O)[C@H](CCCNC(=N)N)NC(=O)[C@H](CCCCN)NC(=O)[C@H](CCCCN)NC(=O)[C@@H](NC(=O)[C@@H](NC(=O)[C@H](CO)NC(=O)CN)C(C)C)[C@@H](C)CC)[C@@H](C)O)C(=O)N[C@@H](CCC(N)=O)C(=O)N[C@@H](CCCNC(=N)N)C(=O)N[C@@H](CCCNC(=N)N)C(=O)N[C@@H](CCCNC(=N)N)C(=O)N[C@@H](C)C(=O)NCC(=O)N[C@@H](CCCCN)C(=O)O [PF-527] (H-GSVIKKRRKRMAKKKHRKLLKKTRIQRRRAGK-OH; N-terminus and C-terminus assumed),MIC,[1],50 µM
same,MIC,[2],12.5 µM
same,MIC,[3]; [17],25 µM
same,MIC,[4],6.25 µM
same,MIC,[5],25 µM
same,MIC,"[6]; MRSA, BHI supplemented with 2% glucose, 37° C., aerobic, inoculum 10^5 CFU/ml, 18-24 h or 48 h",50 µM
same,MIC,[7],50 µM
CC[C@H](C)[C@H](NC(=O)[C@H](CCCCN)NC(=O)CNC(=O)[C@H](CC(N)=O)NC(=O)[C@H](CCC(N)=O)NC(=O)[C@H](Cc1ccc(O)cc1)NC(=O)[C@H](C)NC(=O)[C@H](CCCCN)NC(=O)[C@H](C)NC(=O)[C@H](Cc1ccccc1)NC(=O)[C@H](CC(=O)O)NC(=O)[C@H](CCC(N)=O)NC(=O)[C@H](Cc1c[nH]cn1)NC(=O)[C@H](CO)NC(=O)[C@H](CC(N)=O)NC(=O)[C@H](Cc1ccccc1)NC(=O)[C@H](CO)NC(=O)[C@H](CC(C)C)NC(=O)[C@H](C)NC(=O)[C@@H](NC(=O)[C@H](CC(N)=O)NC(=O)[C@@H](NC(=O)[C@H](CCCCN)NC(=O)[C@H](CCCCN)NC(=O)[C@H](CCC(=O)O)NC(=O)[C@H](CCCCN)NC(=O)[C@H](CC(=O)O)NC(=O)[C@H](CC(C)C)NC(=O)[C@H](CCC(=O)O)NC(=O)[C@H](CCCCN)NC(=O)[C@H](CO)NC(=O)[C@H](C)NC(=O)[C@H](CC(N)=O)NC(=O)[C@H](CC(C)C)NC(=O)[C@@H](NC(=O)[C@H](CCCCN)NC(=O)[C@H](CO)NC(=O)[C@H](CCC(=O)O)NC(=O)[C@@H](N)Cc1ccccc1)[C@@H](C)CC)C(C)C)[C@@H](C)O)C(=O)O [PF-606] (H-FESKILNASKELDKEKKVNTALSFNSHQDFAKAYQNGKI-OH; N-terminus and C-terminus assumed),MIC,[8],50 µM
same,MIC,[3],50 µM
same,MIC,[9],50 µM
same,MIC,[6],50 µM
same,MIC,[10],50 µM
TKKIELKRFVDAFVKKSYENYILERELKKLIKAINEELPTK [PF-600],MIC,[9],50 µM
same,MIC,[10],50 µM
YIQFHLNQQPRPKVKKIKIFL [PF-531],MIC,[1],25 µM
same,MIC,"[2]; B. subtilis, BHI, 30° C., aerobic, inoculum 10^5 CFU/ml, 18-24 h or 48 h",25 µM
same,MIC,"[8]; S. mutans, TH supplemented with 1% sucrose, 37° C., anaerobic, inoculum 10^5 CFU/ml, 18-24 h or 48 h",12.5 µM
same,MIC,[3]; [17],50 µM
same,MIC,[4],6.25 µM
same,MIC,[5],50 µM
same,MIC,[11],12.5 µM
same,MIC,[12],25 µM
same,MIC,[7],50 µM
CC[C@H](C)[C@H](NC(=O)[C@H](CCC(N)=O)NC(=O)[C@H](CCCCN)NC(=O)[C@H](CC(C)C)NC(=O)[C@H](CC(C)C)NC(=O)[C@@H]1CCCN1C(=O)[C@H](CCSC)NC(=O)[C@H](CC(C)C)NC(=O)[C@H](CO)NC(=O)[C@H](CCCCN)NC(=O)CNC(=O)[C@@H](N)CCCCN)C(=O)N[C@@H](CC(N)=O)C(=O)N[C@@H](CCC(N)=O)C(=O)N[C@@H](Cc1c[nH]c2ccccc12)C(=O)NCC(=O)N[C@@H](CCCCN)C(=O)N[C@@H](CC(C)C)C(=O)N[C@@H](Cc1ccc(O)cc1)C(=O)N[C@@H](CC(C)C)C(=O)O [PF-C239] (H-KGKSLMPLLKQINQWGKLYL-OH; N-terminus and C-terminus assumed),MIC,[13],50 µM
same,MIC,[8],50 µM
same,MIC,[14],25 µM
same,MIC,[15],50 µM
CC[C@@H](C)[C@@H](NC(=O)[C@H](NC(=O)[C@@H](CO)NC(=O)CN)C(C)C)C(=O)N[C@H](CCCCN)C(=O)N[C@H](CCCCN)C(=O)N[C@H](CCCNC(=N)N)C(=O)N[C@H](CCCNC(=N)N)C(=O)N[C@H](CCCCN)C(=O)N[C@H](CCCNC(=N)N)C(=O)N[C@H](CCSC)C(=O)N[C@H](CO)C(=O)N[C@H](CCCCN)C(=O)N[C@H](CCCCN)C(=O)N[C@H](CCCCN)C(=O)N[C@H](Cc1c[nH]cn1)C(=O)N[C@H](CCCNC(=N)N)C(=O)N[C@H](CCCCN)C(=O)N[C@H](CCSC)C(=O)N[C@H](CC(C)C)C(=O)N[C@H](CCCNC(=N)N)C(=O)N[C@H](CCCNC(=N)N)C(=O)N[C@@H](C(=O)N[C@H](CCCNC(=N)N)C(=O)N[C@@H](C(=O)N[C@H](CCC(N)=O)C(=O)N[C@H](CCCNC(=N)N)C(=O)N[C@H](CCCNC(=N)N)C(=O)N[C@H](CCCCN)C(=O)N[C@H](CC(C)C)C(=O)NCC(=O)N[C@H](CCCCN)C(=O)O)C(C)C)[C@H](C)O [PF-S028 D],M. furfur killed,[16],over 99%
CC[C@H](C)[C@H](NC(=O)[C@@H](NC(=O)[C@H](CO)NC(=O)CN)C(C)C)C(=O)N[C@@H](CCCCN)C(=O)N[C@@H](CCCCN)C(=O)N[C@@H](CCCNC(=N)N)C(=O)N[C@@H](CCCNC(=N)N)C(=O)N[C@@H](CCCCN)C(=O)N[C@@H](CCCNC(=N)N)C(=O)N[C@@H](CCSC)C(=O)N[C@@H](CO)C(=O)N[C@@H](CCCCN)C(=O)N[C@@H](CCCCN)C(=O)N[C@@H](CCCCN)C(=O)N[C@@H](Cc1c[nH]cn1)C(=O)N[C@@H](CCCNC(=N)N)C(=O)N[C@@H](CCCCN)C(=O)N[C@@H](CCSC)C(=O)N[C@@H](CC(C)C)C(=O)N[C@@H](CCCNC(=N)N)C(=O)N[C@@H](CCCNC(=N)N)C(=O)N[C@H](C(=O)N[C@@H](CCCNC(=N)N)C(=O)N[C@H](C(=O)N[C@@H](CCC(N)=O)C(=O)N[C@@H](CCCNC(=N)N)C(=O)N[C@@H](CCCNC(=N)N)C(=O)N[C@@H](CCCCN)C(=O)N[C@@H](CC(C)C)C(=O)NCC(=O)N[C@@H](CCCCN)C(=O)O)C(C)C)[C@@H](C)O [PF-S028 L],M. furfur killed,[16],39%
